What all share (type): functional
What all share (conditions): inhaled or nasal

Test [1] relates to Mus musculus. Kind of test: Compound was tested for percentage survival of immunocompromized CF-1 mice infected by inhalation with Aspergillus fumigatus strain ND142 conidia at dose 100 mg/Kg.
Test [2] has as its system Mus musculus. Kind of test: Compound was tested for percentage survival of immunocompromized CF-1 mice infected by inhalation with Aspergillus fumigatus strain ND142 conidia at dose 50 mg/Kg.
In test [3] the test system is Mus musculus. Put plainly: Compound was tested for percentage survival of immunocompromized CF-1 mice infected […] albicans strain C-65 colony forming units at dose 50 mg/Kg.
The test system of test [4] is Mus musculus. Put plainly: Compound was tested for percentage survival of normal CF-1 Mice infected […] albicans strain C-65 colony forming units at dose 10 mg/Kg.
Test [5] concerns Mus musculus. Kind of test: Compound was tested for percentage survival of normal CF-1 Mice infected […] albicans strain C-65 colony forming units at dose 50 mg/Kg.
The subject of test [6] is Mus musculus. Put plainly: Compound was tested for percentage survival of normal CF-1 Mice infected […] albicans strain C-65 colony forming units at dose 25 mg/Kg.
Test [7] deals with Mus musculus. Kind of test: Compound was tested for percentage survival of immunocompromized CF-1 mice infected by inhalation with Aspergillus flavus strain ND134 at dose 50 mg/Kg.
Test [8] relates to Mus musculus. Kind of test: Compound was tested for percentage survival of immunocompromized CF-1 mice infected […] albicans strain C-65 colony forming units at dose 10 mg/Kg.
For test [9], the system named is Mus musculus. Put plainly: Compound was tested for percentage survival of immunocompromized CF-1 mice infected […] albicans strain C-65 colony forming units at dose 25 mg/Kg.
For test [10], the system named is Mus musculus. Kind of test: Compound was tested for percentage survival of immunocompromized CF-1 mice infected by inhalation with Aspergillus flavus strain ND134 at dose 100 mg/Kg.
The test system of test [11] is Mus musculus. Kind of test: Compound was tested for percentage survival of normal CF-1 Mice infected […] albicans strain C-65 colony forming units at dose 1 mg/kg.

Each structure is given as a SMILES string.

On to `CC(C)n1ncn(-c2ccc(N3CCN(c4ccc(OC[C@@H]5CC[C@@](Cn6cncn6)(c6ccc(F)cc6F)C5)cc4)CC3)cc2)c1=O`, for which the survival at 100 mg/kg in the test with Mus musculus [1] amounted to 10%. The same compound came in with a survival at 50 mg/kg in the test on Mus musculus [2] of 10%.

Take `CCC(C)n1ncn(-c2ccc(N3CCN(c4ccc(OC[C@@H]5CO[C@@](Cn6cncn6)(c6ccc(F)cc6F)C5)cc4)CC3)cc2)c1=O` (single isomer, unassigned): the survival at 50 mg/kg in the test with Mus musculus [3] was found to be 40%; in the test on Mus musculus [5] it was 100%; in the test with Mus musculus [7], 80%; in the test on Mus musculus [2] it was 10%. Moreover, the survival at 10 mg/kg was found to be 80% in the test on Mus musculus [4] and 30% in the test on Mus musculus [8]. Besides, the figures for the survival at 25 mg/kg with Mus musculus [6] and in the test on Mus musculus [9] were 90% and 40%, respectively. Moreover, the results for the survival at 100 mg/kg in the test on Mus musculus [1] and in the test on Mus musculus [10] were 30% and 90%, respectively.

Consider `CCC(C)n1ncn(-c2ccc(N3CCN(c4ccc(OC[C@H]5CO[C@](Cn6cncn6)(c6ccc(Cl)cc6Cl)O5)cc4)CC3)cc2)c1=O` (some centres undefined) [ITRACONAZOLE], for which the survival at 50 mg/kg is 20% in the test with Mus musculus [3] and 40% with Mus musculus [5]. Further, the survival at 25 mg/kg in the test with Mus musculus [6] and with Mus musculus [9] was 0% each time. Also, the survival at 100 mg/kg was determined as 10% in the test with Mus musculus [1] and 20% with Mus musculus [10].

Take `CCC(C)n1ncn(-c2ccc(N3CCN(c4ccc(OC[C@H]5CO[C@](Cn6cncn6)(c6cc(F)cc(F)c6)O5)cc4)CC3)cc2)c1=O` (some centres undefined): the survival at 50 mg/kg amounted to 0% in the test with Mus musculus [3] and 30% in the test on Mus musculus [5]. In addition, the figures for the survival at 25 mg/kg in the test with Mus musculus [6] and in the test with Mus musculus [9] were 20% and 0%, respectively.

In the case of `CCC(CC)n1ncn(-c2ccc(N3CCN(c4ccc(OC[C@@H]5CO[C@@](Cn6cncn6)(c6ccc(F)cc6F)C5)cc4)CC3)cc2)c1=O`, the results for the survival at 50 mg/kg in the test with Mus musculus [3], with Mus musculus [7] and with Mus musculus [2] were 50%, 60% and 70%, respectively. In addition, the values for the survival at 10 mg/kg in the test with Mus musculus [4] and with Mus musculus [8] were 100% and 20%, respectively. Also, the survival at 1 mg/kg in the test with Mus musculus [11] turned out to be 80%. In addition, the survival at 25 mg/kg in the test on Mus musculus [6] came to 100%; in the test with Mus musculus [9], 30%.

Consider `O=c1n(-c2ccc(N3CCN(c4ccc(OC[C@@H]5CC[C@@](Cn6cncn6)(c6ccc(F)cc6F)C5)cc4)CC3)cc2)cnn1C1CCCC1`, for which the survival at 50 mg/kg in the test on Mus musculus [5] was 70%; with Mus musculus [7], 40%. This compound showed a survival at 25 mg/kg in the test with Mus musculus [6] of 50%. In the test on Mus musculus [10], the survival at 100 mg/kg stood at 50%.

For `OC(Cn1cncn1)(Cn1cncn1)c1ccc(F)cc1F` [FLUCONAZOLE], the survival at 10 mg/kg in the test on Mus musculus [4] was found to be 90%; in the test on Mus musculus [8], 30%. In the test with Mus musculus [11], this compound showed a survival at 1 mg/kg of 0%. Further, the survival at 25 mg/kg in the test on Mus musculus [6] was 100%; in the test with Mus musculus [9], 40%.

Source of the values: ChEMBL document CHEMBL1128898, “Sch 51048, a novel broad-spectrum orally active antifungal agent: Synthesis and preliminary structure-activity profile” (1995).
